Test in all cases: NCI-60 cell line screen, 48 h
In assay [1] the test system is MDA-MB-435.
Assay [2] has as its system PC-3 prostate.
Assay [3] has as its system SNB-19 CNS.
For assay [4], the system named is SN12C renal.
The test system of assay [5] is SK-OV-3 ovarian.
The subject of assay [6] is A549 NSCLC.
Assay [7] relates to SK-MEL-28 melanoma.
In assay [8] the test system is SR leukemia.
The subject of assay [9] is MCF7 breast.
The subject of assay [10] is MDA-N.
The subject of assay [11] is NCI-H522 lung.
In assay [12] the test system is SW-620 colon.
Assay [13] relates to HL-60(TB) leukemia.
The subject of assay [14] is BT-549 breast.
In assay [15] the test system is SF-295 CNS.
Assay [16] deals with A498 renal.
Assay [17] relates to ACHN renal.

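1) Cells in 96-well plates. 2) Compound, 48 h, 5 concentrations. 3) Linear interpolation between surrounding doses. 4) Unreached endpoint = highest concentration. TGI marks complete inhibition of growth.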 Bounds are passed on as bounds.

As to `N#Cc1sc2c(c1OC(=O)c1ccccc1)c(=O)n(-c1ccccc1)c(=S)n2-c1ccccc1`, the TGI in [1] is 67.9 µM; in assay [2] it was 66.6 µM; in assay [3], above 100 µM; in assay [4], 77.7 µM; in assay [5] it was above 100 µM; in [6] it was above 100 µM. Besides, the TGI in [7] is 72.4 µM; in [8], above 100 µM; in assay [9], 43.6 µM; in assay [10], 65.1 µM; in assay [11], 29.8 µM; in assay [12] it was above 100 µM. In addition, the TGI is 61.4 µM in assay [13], above 100 µM in [14] and 70.3 µM in [15].
Regarding `COC1/C=C/C(C)C(C(C)C(OC)C(C)CCC(=O)C(C)C(C/C=C/N(C)C=O)OC)OC(=O)C=CC2OC2(C)CC(OC)C(OC)C2=CC(=O)O[C@@H](C(C)C(OC)CC(OC)/C=C/C(C)C(O)C1)[C@H]2O` (some centres undefined), the TGI is above 1.24 µM in assay [1]; 0.0297 µM in assay [2]; 0.0316 µM in assay [3]; 0.0342 µM in assay [4]; 0.0259 µM in assay [16]; 0.0667 µM in assay [5]. Also, the TGI in assay [6] is 0.0384 µM; in assay [9], above 0.286 µM; in assay [10], 0.103 µM; in [11], 0.0296 µM; in assay [13] it was 0.0785 µM; in [17] it was 0.016 µM. In addition, the TGI in assay [14] was found to be 0.0907 µM; in assay [15] it was 0.0236 µM.
As for `Nc1n[n+](CC(=O)c2ccccc2)c2sc(-c3ccccc3)nn12`, the TGI in [1], in assay [2], in [3], in assay [4], in [16] and in [5] was above 100 µM in each case. In addition, the TGI in [6], in [7], in assay [9], in assay [10], in [11] and in [12] was above 100 µM throughout. For the same molecule, the TGI in assay [17], in assay [14] and in [15] was above 100 µM in each case.
On to `CC1(C)C=Cc2c(cc(O)c3c(=O)c4cc(Cl)ccc4[nH]c23)O1`, for which the TGI was above 10 µM in assay [1]; 7.12 µM in assay [2]; 6.4 µM in [3]; above 10 µM in assay [4]; above 10 µM in assay [5]; above 10 µM in assay [6]. The TGI is above 10 µM in assay [7]; above 10 µM in assay [8]; above 10 µM in assay [9]; 8.58 µM in assay [10]; 6.46 µM in [11]; above 10 µM in assay [12]. Moreover, the TGI is 6.6 µM in [13], above 10 µM in assay [17], 8.06 µM in assay [14] and 8.25 µM in assay [15].
On to `CCc1nn(CN2CCOCC2)c(=S)n1/N=C/c1ccc(-c2ccc(Cl)cc2)o1`, for which the TGI in [1], in assay [2], in assay [16], in assay [6], in assay [7] and in assay [8] was above 100 µM throughout. In addition, the TGI in assay [9], in assay [10], in assay [11], in assay [12], in [13] and in [17] was above 100 µM throughout. In addition, the TGI in [14] and in assay [15] was above 100 µM throughout.
With `CN1c2ccccc2C(=O)NC12CCN(CCCC(=O)c1ccc(F)cc1)CC2`, the TGI in [1], in assay [2], in assay [4], in assay [5], in assay [6] and in assay [7] was above 100 µM throughout. The TGI in assay [8], in assay [9], in assay [10], in [11], in [12] and in assay [13] was above 100 µM each time. The TGI in [17], in assay [14] and in assay [15] was above 100 µM throughout.
As to `COc1ccc(C2SCC(=O)N2c2ccc(-c3ccc(-n4c(-c5ccccc5)nc5ccccc5c4=O)cc3)cc2)cc1OC` (centres undefined), the TGI in assay [1], in assay [2], in assay [3], in [4], in [16] and in assay [5] was above 100 µM in each case. Further, the TGI in [6], in assay [7], in [8], in assay [9], in [10] and in [12] was above 100 µM throughout. Further, the TGI in assay [13] was above 100 µM; in [14], 51.1 µM; in assay [15], 33.5 µM.
With `CCOC(=O)/C(C=Nc1c(C)n(C)n(-c2ccccc2)c1=O)=C(/C)O`, the TGI in [1], in assay [2], in [4], in [16], in assay [5] and in [6] was above 100 µM each time. The TGI in [8], in [9], in [10], in assay [11], in [12] and in [13] was above 100 µM in each case. Moreover, the TGI in assay [17], in assay [14] and in assay [15] was above 100 µM each time.
`CC(C)(C)OC(=O)NC(Cc1ccccc1)OCc1ccccc1` (centres undefined): the TGI in assay [1] was determined as 42.7 µM; in [2], 26.7 µM; in [3], 37.7 µM; in assay [4] it was 50.4 µM; in assay [5] it was 31.4 µM; in [6], 32.8 µM. Further, the TGI is 33.1 µM in [7]; above 100 µM in assay [8]; 35.9 µM in assay [9]; 38.1 µM in [10]; 26.9 µM in [11]; 34.2 µM in [12]. Further, the figures for the TGI in assay [17], in [14] and in [15] were 35 µM, 55.2 µM and 31.2 µM, respectively.

(Values after PubChem BioAssay (NCI).)
